Activity calls are given as the source filed them. The rule behind the calls is not given here.
What was measured:
[1] = Photosensitizing ability of the compound assessed as singlet oxygen production measured upon irradiation by electron spin resonance analysis; type: functional
[2] = Photostability of the compound measured after 30 mins of light irradiation by UV absorption based analysis; type: physicochemical; settings: 0.5 h
[3] = Phototherapeutic index, ratio of IC50 for cytotoxicity against human A549 cells measured under normoxia conditions to IC50 for phototoxicity against human A549 cells measured under normoxia conditions and after two-photon excitation upon irradiation with light at 808 nm, 200 mW/cm2 for 10 mins; type: functional
[4] = Phototherapeutic index, ratio of IC50 for cytotoxicity against human A549 cells measured under hypoxia conditions to IC50 for phototoxicity against human A549 cells measured under hypoxia conditions and after one-photon excitation upon irradiation with light at 520 nm, 200 mW/cm2 for 10 mins; type: functional

SMILES: CCn1c2ccc(/C=C/c3cc[n+](C)c4ccccc34)cc2c2cc(N(c3ccccc3)c3ccccc3)ccc21.[I-]
- Activity [1]: Active
- Stability [2]: Stable
- Ratio IC50 [3]: 11
- Ratio IC50 [4]: 46

From ChEMBL document CHEMBL6182856, “Novel one-/two-photon excited carbazole/quinolinium photosensitizers manifest nanomolar and hypoxia-resistant tumor photodynamic therapy by accelerating apoptosis, ferroptosis, and autophagy” (Eur J Med Chem, 2025)
